Read-outs that look alike come from different tables or passages of the source.

As a reminder, the EC50 is the midpoint of the concentration-response curve. Higher therefore signals weaker potency. One may read the AUC as concentration integrated over time.

In series [1] the test system is SMN2-linked luciferase-reporter gene construct. The series can be described thus: SMN splice reporter assay (SMN2-linked luciferase reporter, Example 10). The format is cell-based. Particulars: for maximal fold induction: read-out: SMN Splice Reporter Assay (Example 10) Avg MaxFold Increase. The method in brief: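 Values are fold-increase in luciferase signal relative to baseline cells without compound. The cervical carcinoma line used holds a fusion of alternatively spliced SMN2 sequence and luciferase. Readable frame, and thus signal, arises only with exon 7-including splicing.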

Series [2] relates to luciferase reporter containing the UAG stop codon. The series can be described thus: Translational read-through luciferase reporter assay, UAG stop codon. The format is cell-based. Particulars: read-out: MaxFold Increase. From the text: This assay is described in detail in WO 01/44516 A2. This is a cell-based luciferase reporter assay designed to detect translational read-through via insertion of a translational stop codon within the luciferase coding sequence. In the presence of compounds that promote read-through of translational stop codons, active luciferase is produced and detected via chemiluminescence. We have shown that indoprofen analogs are active in two versions of this assay—one containing a UGA stop codon and one containing a UAG stop codon. The data in the table is from the luciferase reporter containing the UAG stop codon. This is the first stop codon downstream of the improper splice junction between exons 6 and 8 in the human SMN2 transcript.

In series [3] the test system is human GLT-1/EAAT-2 promoter. The series can be described thus: GLT-1/EAAT-2 promoter luciferase reporter assay in COS-7 cells. The format is cell-based. To be noted: COS-7 pE2P-GL3 (clone 4), 48 h; for maximal fold induction: Homo sapiens, normalized to DMSO control, read-out: Max Fold-Induction. The procedure: The astroglial glutamate transporter, GLT-1/EAAT-2, is responsible for the majority of glutamate transport in the brain and spinal cord. […] Results from each plate were normalized to the DMSO treated control wells and expressed as fold-induction. EC50 values were calculated using GraphPad Prism software.
(A reporter such as luciferase makes a cellular process visible.)

The nature of series [4]: Plasma and brain pharmacokinetics in mice. The series is classed as in vivo, FVB or CD-1 mice. To be noted: single dose; for half-life / Kp / AUC: mouse; for Kp: brain and plasma, read-out: Brain/Plasma Ratio. As to the method:
Compounds were formulated in solution using the method of cosolvency as described by Lee et al., Int. J. Pharmaceutics, 253: 111-119 (2003). FVB or CD-1 mice, approximately 5 weeks old, were given a single dose of compound at the indicated concentration. Compounds were administered orally, with the exception of ALB-116638 and ALB-117573, which were administered IV. Three to five mice were euthanized at various times between 15 minutes and 24 hours after dosing and brain and plasma were harvested. Tissues were homogenized in acetonitrile and analyzed on an API 4000 LC/MS/MS system coupled with an Agilent 1100 series liquid chromatograph. All pharmacokinetic analyses were conducted using WinNonlin (Version 4.01; Pharsight, Palo Alto, Calif.) with the exception of brain/plasma ratios, which were calculated using Microsoft Excel 2000. AUC values are the area under the concentration-time curve from time zero to the last measured time point. The half life values are extrapolated from 3-4 time points taken at less than 4 hours after dosing.

Setting [5] is: SMN2-linked luciferase reporter, average.
Setting [6] is: maximum fold increase of reporter signal, average.
The mark [7] stands for this setting: SMN2-linked luciferase reporter, average maximum fold increase.
The mark [8] stands for this setting: brain, 5 mg/kg, IV, read-out: Brain T½ (converted).
The mark [9] stands for this setting: brain, 5 mg/kg, oral, read-out: Brain T½ (converted).
The mark [10] stands for this setting: plasma, 5 mg/kg, oral, read-out: Plasma T½ (converted).

In the case of `CCCC(C)c1ccc(N2Cc3ccc(OC)cc3C2=O)cc1` (stereo not shown) [ALB-117451], the EC50 in series [1] (setting [5]) is 2910 nM. Moreover, the values for the maximal fold induction in series [1] (setting [6]) and in series [2] were 1.74 and 2.1, respectively.
In the same order, the values of `CC(C)c1ccc(N2Cc3ccc(C(F)(F)F)cc3C2=O)cc1` [ALB-117902] are 1100 nM, 1.57 and 2.
In the same order, the values of `CC(C)c1ccc(N2Cc3ccccc3C2=O)cc1` [ALB-114274] are 52 nM, 1.4 and 2.6.
In the same order, the values of `CC(C(=O)O)c1ccc(N2Cc3cc4c(cc3C2=O)OCCO4)cc1` (stereo not shown) [ALB-114844] are 8 nM, 1.36 and 2.4.
Turning to `CC(C)c1ccc(N2Cc3ccc(O)cc3C2=O)cc1` [ALB-116078], the EC50 in series [1] (setting [5]) is 267 nM. The maximal fold induction in series [1] (setting [7]) stood at 1.64; in series [2] it was 3.3.
As for `CC(C)c1ccc(N2Cc3ccc(Br)cc3C2=O)cc1` [ALB-114901], a half-maximal effect in series [1] (setting [5]) (EC50) was put at 193 nM. In addition, the maximal fold induction in series [1] (setting [6]) came out at 1.52; in series [2] it was 2.6.
Taken in the same sequence, the figures for `COc1ccc2c(c1)C(=O)N(c1ccc(C)cc1)C2` [ALB-115084] were 60 nM, 1.39 and 2.3.
`CC(C(=O)O)c1ccc(N2Cc3ccc(C(F)(F)F)cc3C2=O)cc1` (stereo not shown) [ALB-113652] came in with an EC50 in series [1] (setting [5]) of 1490 nM. Moreover, the maximal fold induction was found to be 1.66 in series [1] (setting [6]) and 2.9 in series [2].
Take `CC(C)(C)c1ccc(N2Cc3cc4c(cc3C2=O)OCCO4)cc1` [ALB-117452]: in series [1] (setting [5]), it took 289 nM to reach a half-maximal effect (EC50). Further, the maximal fold induction in series [1] (setting [7]) was determined as 1.4; in series [2], 2.2.
Taken in the same sequence, the figures for `CC(C)c1ccc(N2Cc3cc4c(cc3C2=O)OCO4)cc1` [ALB-116362] were 123 nM, 1.52 and 2.3.
In series [1] (setting [5]), `CCOc1ccc2c(c1)C(=O)N(c1ccc(C(C)C)cc1)C2` [ALB-116074] registered an EC50 of 310 nM. The maximal fold induction in series [1] (setting [6]) was 1.51; in series [2], 2.9.
Compound `Cc1ccc2c(c1)C(=O)N(c1ccc(C(C)C)cc1)C2` [ALB-115586] came in with an EC50 in series [1] (setting [5]) of 97 nM. Also, the maximal fold induction in series [1] (setting [6]) was determined as 1.32; in series [2], 2.3.
In the case of `CC(C)c1ccc(N2Cc3ccc(NS(C)(=O)=O)cc3C2=O)cc1` [ALB-116486], the response in series [1] (setting [5]) was half-maximal at 757 nM (EC50). Moreover, the maximal fold induction came out at 1.49 in series [1] (setting [7]), 1.17 in series [3] and 2.4 in series [2].
As to `CC(CN(C)C)c1ccc(N2Cc3ccccc3C2=O)cc1` (stereo not shown) [ALB-113968], the half-maximal effective concentration (EC50) in series [1] (setting [5]) stood at 6030 nM; in series [3] it was 1270 nM. Also, the maximal fold induction was found to be 1.37 in series [1] (setting [6]) and 1.78 in series [3].
`CC(C(=O)O)c1ccc(N2Cc3ccc(Cl)cc3C2=O)cc1` (stereo not shown) [ALB-111743] displayed an EC50 in series [1] (setting [5]) of 267 nM. The results for the maximal fold induction in series [1] (setting [6]) and in series [2] were 1.67 and 2.7, respectively.
`CC(C)c1ccc(N2Cc3ccc(NC(N)=O)cc3C2=O)cc1` [ALB-117573] came in with an EC50 in series [1] (setting [5]) of 345 nM. The maximal fold induction is 1.67 in series [1] (setting [7]) and 4.4 in series [2]. In series [4] (5 mg/kg, IV), the “Brain AUC” value was 64.5 ng·h/g. Also, in series [4] (setting [8]), the half-life was 7.4 h.
Consider `COCC(C)c1ccc(N2Cc3cc4c(cc3C2=O)OCCO4)cc1` (stereo not shown) [ALB-116361], for which the EC50 in series [1] (setting [5]) is 3560 nM; in series [3], 6.79 nM. In addition, the maximal fold induction in series [1] (setting [6]) is 1.9; in series [3] it was 1.54.
As to `CC(C)c1ccc(N2Cc3ccc(N(C)S(C)(=O)=O)cc3C2=O)cc1` [ALB-116638], a half-maximal effect in series [1] (setting [5]) (EC50) was put at 166 nM. Moreover, the maximal fold induction in series [1] (setting [7]) amounted to 1.51. Further, in series [4] (5 mg/kg, IV), the “Brain AUC” value was 537.2 ng·h/g. In addition, the half-life in series [4] (setting [8]) is 7.3 h.
For `COCc1ccc2c(c1)C(=O)N(c1ccc(C(C)C)cc1)C2` [ALB-116935], in series [1] (setting [5]), the midpoint of the response, the EC50, lay at 78 nM. For the same compound, the maximal fold induction was found to be 1.52 in series [1] (setting [6]) and 1.9 in series [2]. The “Brain AUC” value in series [4] (5 mg/kg, oral) came out at 338.1 ng·h/g. Moreover, the half-life in series [4] (setting [9]) is 9.4 h.
Compound `Br.COCC(C)c1ccc(N2Cc3ccc(C)cc3C2=O)cc1` (stereo not shown) [ALB-113967] came in with an EC50 in series [1] (setting [5]) of 159 nM. Besides, the maximal fold induction in series [1] (setting [6]) is 1.54; in series [2] it was 2.6. Further, in series [4] (5 mg/kg, oral), the “Brain AUC” value is 170.5 ng·h/g. For the same compound, in series [4] (5 mg/kg, oral), the Kp was 0.29. Also, the figures for the half-life in series [4] (setting [9]) and in series [4] (setting [10]) were 1.1 h and 1.5 h, respectively. Moreover, the AUC in series [4] (plasma, 5 mg/kg, oral) was 595 ng·h/mL.
`Cc1cccc2c1C(=O)N(c1ccc(C(C)C)cc1)C2` [ALB-115812]: in series [1] (setting [5]), the EC50 stood at 163 nM. Also, the maximal fold induction is 1.35 in series [1] (setting [6]) and 3 in series [2].
In the same order, the values of `CC(C)c1ccc(N2Cc3cc(Cl)ccc3C2=O)cc1` [ALB-116932] are 81 nM, 1.45 and 2.4.
Take `CC(C(=O)O)c1ccc(N2Cc3ccc(N(C)C)cc3C2=O)cc1` (stereo not shown) [ALB-113648]: it took 28 nM to reach a half-maximal effect in series [1] (setting [5]) (EC50). The maximal fold induction in series [1] (setting [6]) turned out to be 1.6; in series [2], 3.3.
In series [1] (setting [5]), `CC(C)c1ccc(N2Cc3cccc(Cl)c3C2=O)cc1` [ALB-117454] displayed an EC50 of 470 nM. Besides, the maximal fold induction in series [1] (setting [6]) was 1.51; in series [2], 3.1.
Consider `COc1ccc2c(c1)C(=O)N(c1ccc(C(C)C(=O)OC(C)(C)C)cc1)C2` (stereo not shown) [ALB-112354], for which the concentration giving a half-maximal response (EC50) turned out to be 801 nM in series [1] (setting [5]) and 221 nM in series [3]. The results for the maximal fold induction in series [1] (setting [6]), in series [3] and in series [2] were 1.46, 1.93 and 2, respectively.
Compound `COc1ccc2c(c1)C(=O)N(c1ccc(C(C)(C)C)cc1)C2` [ALB-115210] registered an EC50 in series [1] (setting [5]) of 324 nM. Moreover, the results for the maximal fold induction in series [1] (setting [6]) and in series [2] were 1.47 and 2.9, respectively. In addition, the “Brain AUC” value in series [4] (5 mg/kg, oral) was found to be 553.8 ng·h/g; in series [4] (25 mg/kg, oral), 5950.9 ng·h/g. Also, the Kp amounted to 51.7 in series [4] (5 mg/kg, oral) and 15 in series [4] (25 mg/kg, oral). Also, the half-life was 0.6 h in series [4] (setting [9]); 2.9 h in series [4] (brain, 25 mg/kg, oral, read-out: Brain T½ (converted)); 9.4 h in series [4] (setting [10]); 1.1 h in series [4] (plasma, 25 mg/kg, oral, read-out: Plasma T½ (converted)). The AUC in series [4] (plasma, 5 mg/kg, oral) is 10.7 ng·h/mL; in series [4] (plasma, 25 mg/kg, oral), 397 ng·h/mL.
`CN(C)Cc1ccc(N2Cc3ccccc3C2=O)cc1` [ALB-116255] registered an EC50 in series [1] (setting [5]) of 50 nM. Further, the maximal fold induction was 1.09 in series [1] (setting [6]) and 1.2 in series [3].
For `COCC(C)c1ccc(N2Cc3ccc(OC)cc3C2=O)cc1` (stereo not shown) [ALB-114783], the concentration giving a half-maximal response (EC50) in series [1] (setting [5]) is 186 nM. Further, the maximal fold induction was 1.37 in series [1] (setting [6]) and 2.6 in series [2].
For the compound `Cc1ccc2c(c1)CN(c1ccc(C(C)C)cc1)C2=O` [ALB-115948], the EC50 in series [1] (setting [5]) came out at 30 nM. For the same compound, the maximal fold induction in series [1] (setting [6]) was 1.42; in series [2], 2.8.
Consider `CC(C)c1ccc(N2Cc3ccc(Cl)cc3C2=O)cc1` [ALB-116246], for which, in series [1] (setting [5]), the EC50 turned out to be 31 nM. Further, the maximal fold induction was found to be 1.35 in series [1] (setting [6]) and 2.7 in series [2].
In the same order, the values of `CCCc1ccc2c(c1)C(=O)N(c1ccc(C(C)C(=O)OC(C)(C)C)cc1)C2` (stereo not shown) [ALB-113213] are 565 nM, 1.23 and 1.9.
In the same order, the values of `COc1ccc2c(c1)C(=O)N(c1ccc(C(C)C(O)OC)cc1)C2` (stereo not shown) [ALB-114441] are 76 nM, 1.67 and 3.2.
Taken in the same sequence, the figures for `CNc1ccc2c(c1)C(=O)N(c1ccc(C(C)C)cc1)C2` [ALB-117046] were 90 nM, 1.44 and 2.9.

The values above are taken from patent US8110681B2, “Compounds for the treatment of spinal muscular atrophy and other uses” (The United States of America as represented by the …, priority 2006, dated 2012).
